This is an account of results in US20210070779A1, “BORON-CONTAINING SMALL MOLECULES AS ANTI-INFLAMMATORY AGENTS” (Anacor Pharmaceuticals, Inc., priority 2013, published 2021).

pIC50: −log10 of the molar value. Read-outs that look alike come from different tables or passages of the source.

As usually defined, the pIC50 is the IC50 on a negative log10 scale, so that one unit is a factor of ten.

The test deals with Human PDE4 (PDE4B2 truncated catalytic domain) (Homo sapiens, UniProt Q07343). Description: Measurement of Phosphodiesterase 4 (PDE4) inhibition, zinc and barium precipitation method. Type of test: biochemical. The procedure: Measurement of Phosphodiesterase 4 (PDE4) Inhibition
Human PDE4 enzymatic activity was assayed using the zinc and barium precipitation method of Saldou, N. et al (1998: Cell Signal, vol 10, No. 6, pp 427-440). The assay was performed in 96-well v-bottom plates (BrandPlates, Wertheim, Germany). PDE4B2 truncated is the catalytic domain including the UCR2 and a portion of the UCR1 domain of PDE4B2 (23.4 mg/mL) from Proteros Biostructures. Final concentration of enzyme in the assay was 0.3 pM. Stocks of the tested compounds were prepared in 100% DMSO at a concentration of 40 mM. The 100-μL reaction volume consisted of 45 mM Tris-HCl, pH 7.5, 12.5 mM MgSO4, 0.3 μM […] (Sigma, St Louis, Mo.) supplemented with 0.2 μM ^3H-cAMP (Perkin Elmer, Waltham, Mass.). Compounds were pre-incubated with enzyme at room temperature for 20 min prior to initiating the reaction by adding substrate (cAMP supplemented with ^3H-cAMP). After incubation at 30° C. for 6 minutes, the reaction was stopped by the addition of 50 μL fresh made 21.5 mM ZnSO4.7H2O (Alfa Aesar, Ward Hill, Mass.) containing 5 mM AMP as a co-precipitant. Total AMP was precipitated by the addition of 50 μL 17.5 mM Ba(OH)2, prepared fresh daily in water. The precipitate was transferred and collected by filtration onto a 96-well GF/B plate (Millipore, Ireland). The plates were washed five times with cold wash solution (1 mM NaOH, 100 mM NaCl) and dried at 65° C. The bottoms of plates were sealed with clear tapes (Millipore Co-operation, Billerica, Mass.) and 40 μL of scintillation cocktail (Perkin Elmer Waltham, Mass.). The plates were top sealed and radioactivity was measured with an Elmer Packard TopCount scintillation counter.

[1] abbreviates: PDE4B2 truncated, 0.3 pM enzyme, 3H-cAMP substrate, 30° C. 6 minutes, read-out: PDE4 IC50.

Sequence of Human PDE4 (PDE4B2 truncated catalytic domain) (Q07343 212-659): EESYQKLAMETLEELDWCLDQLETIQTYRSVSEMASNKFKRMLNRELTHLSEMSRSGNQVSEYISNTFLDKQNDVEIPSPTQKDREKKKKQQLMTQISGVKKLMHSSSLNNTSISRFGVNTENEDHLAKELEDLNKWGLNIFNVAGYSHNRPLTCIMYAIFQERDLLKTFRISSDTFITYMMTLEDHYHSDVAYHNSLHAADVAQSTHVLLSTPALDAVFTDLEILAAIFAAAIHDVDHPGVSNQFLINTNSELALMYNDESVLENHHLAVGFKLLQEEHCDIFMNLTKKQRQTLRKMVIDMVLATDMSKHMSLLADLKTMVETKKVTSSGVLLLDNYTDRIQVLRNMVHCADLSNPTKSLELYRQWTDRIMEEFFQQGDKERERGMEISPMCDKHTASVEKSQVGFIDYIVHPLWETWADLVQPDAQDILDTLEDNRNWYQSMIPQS

For `N#Cc1ccc(C(=O)c2ccc3c(c2)COB3O)cc1` [A, 4-(1-hydroxy-1,3-dihydrobenzo[c][1,2]oxaborole-5-carbonyl)benzonitrile], the negative-log IC50 (pIC50) was 6.30.

Turning to `N#Cc1ccc(C(O)c2ccc3c(c2)COB3O)cc1` (stereo not shown) [B, 4-(hydroxy(1-hydroxy-1,3-dihydrobenzo[c][1,2]oxaborol-5-yl)methyl)benzonitrile], the negative logarithm of the IC50 (pIC50) under setting [1] was 5.76.

As to `N#Cc1ccc(Cc2ccc3c(c2)COB3O)cc1` [C, 4-((1-hydroxy-1,3-dihydrobenzo[c][1,2]oxaborol-5-yl)methyl)benzonitrile], the pIC50 under setting [1] is 5.75.

Turning to `N#Cc1ccc([S+]([O-])c2ccc3c(c2)COB3O)cc1` (stereo not shown) [D, 4-(1-hydroxy-1,3-dihydrobenzo[c][1,2]oxaborol-5-ylsulfinyl)benzonitrile], the pIC50 under setting [1] was 7.21.
